Assay results as given in BindingDB's records for doi:10.1016/j.chembiol.2008.02.015 (University of Dundee, 2008).
Numbered stars: 1 amine (or outer) side, 2 acyl side, 3 side chain; on linkers, the order of the positions; unused ones are H or OH. Square brackets hold non-standard residues; d marks the D form. Side chains are listed from the residue outwards. Peptide text beside a SMILES is read from it. NMeF = CN[C@@H](Cc1ccccc1)C(=O)O; CO = O=C([*:1])[*:2]

Tests used:
Endochitinase B1 = Endochitinase B1 (Aspergillus fumigatus, UniProt Q873X9); test: Inhibition Assay; conditions: pH 5.5
Chitotriosidase-1 = Chitotriosidase-1 (Homo sapiens, UniProt Q13231); test: Inhibition Assay; conditions: pH 5.5
Chitotriosidase-1, sequence (Q13231 whole entry): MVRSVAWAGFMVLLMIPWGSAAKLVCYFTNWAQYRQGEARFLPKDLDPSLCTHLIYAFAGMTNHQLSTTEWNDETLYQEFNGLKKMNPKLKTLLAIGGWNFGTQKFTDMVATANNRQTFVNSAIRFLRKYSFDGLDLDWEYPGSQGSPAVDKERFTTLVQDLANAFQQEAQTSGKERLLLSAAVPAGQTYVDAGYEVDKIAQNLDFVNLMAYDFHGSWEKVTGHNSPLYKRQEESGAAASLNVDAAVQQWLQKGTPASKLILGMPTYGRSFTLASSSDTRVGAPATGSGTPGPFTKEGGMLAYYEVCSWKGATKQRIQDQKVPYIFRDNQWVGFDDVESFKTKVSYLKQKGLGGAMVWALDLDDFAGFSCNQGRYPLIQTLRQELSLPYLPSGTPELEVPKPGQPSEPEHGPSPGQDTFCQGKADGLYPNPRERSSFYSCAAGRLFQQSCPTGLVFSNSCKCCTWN

IC50 (Chitotriosidase-1)	SMILES	IC50 (Endochitinase B1)
28 µM	CNC(=O)NC(N)=NCCC[C@H](NC(=O)[C@@H](C)NC(C)=O)C(=O)N(C)[C@@H](Cc1ccccc1)C(=O)N[C@@H](CC(=O)O)C(=O)O [Tetrapeptide]	–
190 µM	CNC(=O)NC(=N)NCCC[C@H](NC(C)=O)C(=O)N(C)[C@@H](Cc1ccccc1)C(=O)O	–
1000 µM	CNC(=O)NC(N)=NCCC[C@H](NC(C)=O)C(=O)NC [Monopeptide]	–

Continued, molecule first:

SMILES	IC50 (Chitotriosidase-1)	IC50 (Endochitinase B1)
CNC(=O)NC(=N)NCCC[C@@H]1NC(=O)[C@@H](C)NC(=O)C[C@@H](C(=O)O)NC(=O)C[C@@H](C(=O)O)NC(=O)[C@H](Cc2ccccc2)N(C)C1=O [(2R,5S,8S,11S,15S)-8-benzyl-2,7-dimethyl-5-[3-({[(methylcarbamoyl)amino]methanimidoyl}amino)propyl]-3,6,9,13,17-pentaoxo-1,4,7,10,14-pentaazacycloheptadecane-11,15-dicarboxylic acid]	–	0.027 µM
CNC(=O)NC(N)=NCCC[C@H](NC(C)=O)C(=O)N(C)[C@@H](Cc1ccccc1)C(=O)N[C@@H](CC(=O)O)C(=O)O [Tripeptide] (Ac-Arg([CO-NHMe])-[NMeF]-Asp-OH)	68 µM	5.1 µM
[H]/N=C(\NC)NC(=O)NC [Argifin-Derived Fragments, 1]	5800 µM	500 µM
